Experimental data: patent US20260021092A1, “STRUCTURE-BASED DESIGN OF A NOVEL CLASS OF DRUGS FOR NEURODEGENERATIVE DISEASE” (The Regents of the University of California, priority 2022, published 2026)
Entries after “also recorded” stand apart in the source; their conditions may differ.

Experiments:
[1] = tested on: AD brain-derived tau fibrils; assay: Dot blot of AD tau aggregates with antibody GT38 during EGCG incubation; assay type: biochemical, human; conditions: EGCG incubation 1, 3, 6 and 24 hours at 37°
Description: Brain-derived tau PHFs were incubated with 80 μM EGCG at 37° C. in PBS various lengths of time. Samples were spotted onto nitrocellulose membrane, 20 μL were spotted for each condition, spotting 2 μL at a time and allowing to dry in between. Membrane was blocked for 1 hour in TBST with 5% milk and washed with TBST three times. Membrane was then incubated with primary antibody (either anti-tau GT38 (obtained from Virginia Lee lab at UPenn) or anti-phospho-tau AT8 (cat #MN1020, lot #UL2906281Z), 1:4000 dilution in 2% milk/TBST solution) for 1 hour, washed three times with TBST, incubated with horseradish peroxidase-conjugated secondary antibody (goat anti-mouse IgG H and L (HRP); 1:5000 Dilution in 2% milk/TBST), and washed three times in TBST. Signal was detected with Pierce ECL Plus Western Blotting Substrate (cat #32132), and blot was imaged with a Pharos FX Plus Molecular Imager.

[2] = biological target: AD-tau fibrils seeding HEK293 cells expressing tau-K18 P301S-eYFP (Homo sapiens, UniProt P10636); assay: Tau biosensor cell seeding assay; assay type: cell-based; set-up: dose or concentration left out as unconfirmed; conditions: screen; final inhibitor concentration on the biosensor cells
Chain of AD-tau fibrils seeding HEK293 cells expressing tau-K18 P301S-eYFP (P10636 623-695 limits assumed, stated change not applied): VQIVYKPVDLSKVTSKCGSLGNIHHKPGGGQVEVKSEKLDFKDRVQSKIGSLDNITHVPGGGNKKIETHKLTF
Description: Disaggregating molecules that produce active seeds are undesirable for therapy and are excluded from further study. HEK293T cells expressing CFP- or YFP-fused tau are transduced with exogenous AD tau fibrils.
Inhibitors were dissolved in DMSO. […] The number of seeded aggregates was determined by imaging the entire well of a 96-well plate in triplicate using a Celigo Image Cytometer (Nexcelom) in the YFP channel. […] The number of aggregates was normalized to the confluence of each well, and dose-response plots were generated by calculating the average and standard deviations from triplicate measurements.

[3] = tested on: Neuro2a cells; assay: MTT cytotoxicity assay in Neuro2a cells; assay type: cell-based; conditions: final small molecule concentration of 10 μM
Description: 90 μL of Neuro2a cells were plated on clear 96 well plates (Falcon 353072) at 6000 cells per well and given 24 hours to adhere to the plate. Subsequent treatment consisted of PHF samples that were coincubated with or without 100 μM of small molecules for 48 hours at 37° C., with 10 μL applied per well for a final small molecule concentration of 10 μM. After another 24-hour incubation at 37° C., 20 μL of Thiazolyl Blue Tetrazolium Bromide MTT dye (Sigma; 5 mg/mL stock in DPBS) was added to each well and further incubated for 3.5 hours at 37° C. Assay was arrested by replacement of all media with 100% DMSO and transfer to a SpectraMax MF reader. Background 700 nm readings were subtracted from the absorbance readings at 570 nm. Cells treated with 100% DMSO were designated as 0% viable and those treated only with vehicle were designated as 100% viable. Other well readings were normalized to these values.

[4] = tested on: AD brain-derived tau fibrils; assay: Negative-stain EM and quantitative EM (qEM) of tau fibrils after compound incubation
Description: We then scrutinized the four CNS-Set inhibitors by quantitative EM (qEM) imaging (FIG. 3c, see Methods).
Negatively stained EM Grids were prepared by depositing 6 μl of sample on formvar/carbon coated copper grids (400 mesh) for 3 min with. Sample was rapidly wicked using filter paper without drying the grid, and stained with 1% uranyl acetate for 2 min. […] Fibrils were counted from collections of 33 micrographs (in triplicate) for each experimental condition.

[5] = biological target: T1, recombinant alpha-synuclein fibrils (Homo sapiens, UniProt P37840); assay: Western blot of alpha-synuclein fibrils treated with compound; assay type: biochemical; conditions: 48 hours with compound
T1 construct: made in house; host or cells: E. coli BL21(DE3) Gold
Description: Both compounds were incubated with equimolar ratios of recombinant alpha-synuclein fibrils (100 μM:100 μM) for 48 hours at 37° C. in 1×PBS. After incubation, Thioflavin T (ThT), a fluorescent marker of amyloid fibrils, was added to the samples and ThT fluorescence was measured. EGCG was used as a positive control for comparison. […] Next, transmission electron microscopy (EM) was performed for each sample. […] To obtain a quantitative evaluation of fibril reduction, fibrils were first incubated for 72 hours with compound, then 10 micrographs from random grid points were taken for each sample, and the numbers of fibrils per image were counted (FIG. 5c). […] Western blot analysis, staining for alpha-synuclein, was performed for fibril samples incubated with compounds for 48 hours (FIG. 5d). For untreated alpha-synuclein fibrils, we see a prominent band at 14 kDa corresponding with protein monomer. […]
Samples were loaded onto a NuPAGE 12% Bis-Tris pre-cast protein gel and ran for 35 minutes at 200 V. To transfer protein from the gel to a nitrocellulose membrane an iBLOT2 dry blotting system was used. […] Signal was detected with Pierce ECL Plus Western Blotting Substrate (Cat #32132), and blot was imaged with a Pharos FX Plus Molecular Imager.

[6] = biological target: α-synuclein fibrils (Homo sapiens, UniProt P37840); assay: Table A function: disaggregators of amyloid fibrils (alpha-synuclein)
[7] = tested on: Neuro-2a (N2a) neuronal cells; assay: MTT cell viability assay of N2a cells treated with alpha-synuclein fibrils; assay type: cell-based; conditions: final alpha-synuclein fibril concentration of 1 μM, various compound concentrations
Description: Alpha-synuclein aggregates, particularly oligomers, are known to be cytotoxic to neurons^4. Thus, we next determined if disaggregation of alpha-synuclein aggregates by our compounds mitigates their cytotoxicity. […] The fibril and compound mixtures were then added to cultured Neuro-2a (N2a) neuronal cells, to a final alpha-synuclein fibril concentration of 1 μM.
All experiments were performed in triplicate. […] Removal from the incubator and replacement of well media with 100 μL of 100% DMSO halted the assay. Absorbance was measured at 570 nm using a SpectraMax M5 reader. A background reading at 700 nm was subtracted from the 570 nm reading. Well readings were normalized to vehicle alone treated cells (designated as 100% viable) and cells treated with 100% DMSO (designated as 0% viable).

In the case of O=C(O[C@@H]1Cc2c(O)cc(O)cc2O[C@@H]1c1cc(O)c(O)c(O)c1)c1cc(O)c(O)c(O)c1 [EGCG, epigallocatechin gallate], the “time at which reduction in GT38-positive tau aggregate level begins” value [1] was 1 to 3 h, the “inhibition of seeding in tau biosensor cells (in words)” value [2] was “prevents the formation of any seeds” and the “neuronal cytotoxicity of compound alone” value [3] was “no significant cytotoxicity”. For the same compound, the “appearance of fibrils in negative stain electron micrographs” value ([4]; 3-hour EGCG incubation) was “largely intact but somewhat swollen”, the “appearance of fibrils in negative stain electron micrographs” value ([4]; 24 hours of EGCG incubation) was “nearly gone” and the “fibrils seen by electron microscopy (qualitative)” value ([4]; tau fibrils treated with each compound) was “Few fibrils”.
With Cc1cccc(C)c1NC(=O)Cn1nc(Cc2ccccc2)c2ccccc2c1=O [CNS-11g, 2-(4-benzyl-1-oxophthalazin-2-yl)-N-(2,6-dimethylphenyl)acetamide] the “higher molecular weight alpha-synuclein species by Western blot” value [5] was “reduction in the higher molecular weight species” and the Function [6] was “Dissociate α- synuclein fibrils”.
For Cc1cc(C)c(NC(=O)Cn2nc3c4c(cccc4c2=O)-c2ccccc2-3)c(C)c1 [CNS-11, N-mesityl-2-(3-oxoindeno[1,2,3-de]phthalazin-2(3H)-yl)acetamide], the “higher molecular weight alpha-synuclein species by Western blot” value [5] was “reduction in the higher molecular weight species”, the “neuronal cytotoxicity of compound alone” value [3] was “Apart from CNS-11” and the “rescue of alpha-synuclein fibril cytotoxicity” value [7] was “no rescue of toxicity at any concentration; also recorded: unable to rescue”.
